Laboratory results published in BindingDB's records for patent US20250179055 (Innovstone Therapeutics, 2025).

Biological target: Apolipoprotein(a) (Homo sapiens, UniProt P08519)
Assay: Methods of ELISA Assay on Screening Lp(a) Assembly Inhibition
Method: 1) Added 100 μL of capture antibody to each well of a pre-coated ELISA plate and incubated overnight at 25° C.2) Added 300 μL of washing solution to each well and washed 5 times for 1 min each time.3) Added 100 μL of blocking solution to each well and incubated at 25° C. for 2 h.4) Added 300 μL of washing solution to each well and washed 5 times for 1 min each time.5) Added 100 μL of sample to each well and incubated at 25° C. for 1 h.6) Added 300 μL of washing solution to each well and washed 5 times for 1 min each time.7) Added 100 μL of detection antibody to each well and incubated at 25° C. for 1 h.8) Added 300 μL of washing solution to each well and washed 5 times for 1 min each time.9) Added 100 μL substrate solution (Color Reagent A: Color Reagent B, 1:1) to each well and incubated for 20 min at 25° C. in the dark.10) Added […] of stop solution to each well, gently blowed and sucked several times with the pipette tip, and read within 5 min.

Sequence of Apolipoprotein(a) (P08519 whole entry): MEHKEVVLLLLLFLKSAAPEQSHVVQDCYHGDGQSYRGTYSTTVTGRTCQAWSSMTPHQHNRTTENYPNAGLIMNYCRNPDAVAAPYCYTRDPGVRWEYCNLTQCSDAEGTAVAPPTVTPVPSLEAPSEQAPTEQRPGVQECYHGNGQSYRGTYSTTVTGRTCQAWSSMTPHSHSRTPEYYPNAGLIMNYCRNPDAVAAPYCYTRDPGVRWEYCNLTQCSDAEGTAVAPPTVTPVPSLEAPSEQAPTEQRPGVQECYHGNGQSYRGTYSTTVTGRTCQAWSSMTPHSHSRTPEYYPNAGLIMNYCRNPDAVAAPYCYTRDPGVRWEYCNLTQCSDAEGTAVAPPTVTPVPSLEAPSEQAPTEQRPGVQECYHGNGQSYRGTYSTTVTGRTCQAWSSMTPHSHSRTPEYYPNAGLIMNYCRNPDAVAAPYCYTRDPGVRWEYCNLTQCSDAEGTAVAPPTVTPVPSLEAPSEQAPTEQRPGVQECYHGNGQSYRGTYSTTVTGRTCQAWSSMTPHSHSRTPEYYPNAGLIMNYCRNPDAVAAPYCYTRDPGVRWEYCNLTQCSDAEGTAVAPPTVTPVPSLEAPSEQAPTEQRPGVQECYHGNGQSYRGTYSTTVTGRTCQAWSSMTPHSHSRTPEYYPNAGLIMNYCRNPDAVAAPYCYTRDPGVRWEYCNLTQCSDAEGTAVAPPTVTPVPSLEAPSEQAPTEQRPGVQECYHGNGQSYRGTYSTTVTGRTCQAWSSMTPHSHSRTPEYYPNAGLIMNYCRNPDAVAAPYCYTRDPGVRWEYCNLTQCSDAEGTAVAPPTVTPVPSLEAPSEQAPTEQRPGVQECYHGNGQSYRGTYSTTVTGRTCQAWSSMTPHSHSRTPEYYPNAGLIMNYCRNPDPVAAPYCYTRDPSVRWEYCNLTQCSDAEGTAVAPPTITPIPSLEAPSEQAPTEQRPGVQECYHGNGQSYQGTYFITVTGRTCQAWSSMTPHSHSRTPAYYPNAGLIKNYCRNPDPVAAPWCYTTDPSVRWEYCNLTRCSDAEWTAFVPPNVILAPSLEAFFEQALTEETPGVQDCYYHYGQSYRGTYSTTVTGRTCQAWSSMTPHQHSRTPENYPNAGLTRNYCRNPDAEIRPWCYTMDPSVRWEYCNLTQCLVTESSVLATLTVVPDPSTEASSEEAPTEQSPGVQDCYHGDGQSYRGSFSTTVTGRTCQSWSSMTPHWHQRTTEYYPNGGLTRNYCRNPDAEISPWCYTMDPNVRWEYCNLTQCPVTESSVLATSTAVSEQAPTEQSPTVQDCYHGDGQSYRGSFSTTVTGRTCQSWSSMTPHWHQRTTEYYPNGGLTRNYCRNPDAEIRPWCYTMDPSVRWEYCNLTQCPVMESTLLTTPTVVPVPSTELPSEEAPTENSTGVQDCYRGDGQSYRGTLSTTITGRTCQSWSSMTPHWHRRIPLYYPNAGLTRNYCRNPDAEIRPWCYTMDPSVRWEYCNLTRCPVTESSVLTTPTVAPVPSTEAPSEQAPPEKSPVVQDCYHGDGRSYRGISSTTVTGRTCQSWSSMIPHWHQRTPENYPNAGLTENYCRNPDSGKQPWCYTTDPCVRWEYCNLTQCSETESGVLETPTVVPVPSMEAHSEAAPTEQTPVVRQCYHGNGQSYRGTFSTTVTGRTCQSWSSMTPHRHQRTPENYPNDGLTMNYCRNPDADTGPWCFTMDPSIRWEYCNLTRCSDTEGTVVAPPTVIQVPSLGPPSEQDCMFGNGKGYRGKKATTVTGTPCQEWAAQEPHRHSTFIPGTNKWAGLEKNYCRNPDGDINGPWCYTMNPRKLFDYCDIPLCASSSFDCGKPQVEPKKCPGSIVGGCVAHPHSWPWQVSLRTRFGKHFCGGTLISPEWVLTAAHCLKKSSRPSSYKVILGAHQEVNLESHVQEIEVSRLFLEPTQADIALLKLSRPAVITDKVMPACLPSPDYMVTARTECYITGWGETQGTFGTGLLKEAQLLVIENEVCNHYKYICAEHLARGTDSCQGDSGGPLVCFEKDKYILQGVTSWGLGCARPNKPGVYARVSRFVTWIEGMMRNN

SMILES: O=C(O)[C@@H](Cc1cc2cc(CN(Cc3ccc4oc(C[C@H](C(=O)O)[C@H]5CCNC5)cc4c3)Cc3ccc4oc(C[C@H](C(=O)O)[C@H]5CCNC5)cc4c3)ccc2o1)[C@H]1CCNC1 [US20250179055, Compound 127]
- IC50: 0.9 nM
